Measurements from article PMC10671693, “Design, Synthesis, and Antitumor Activity Evaluation of Proteolysis-Targeting Chimeras as Degraders of Extracellular Signal-Regulated Kinases 1/2” (International Journal of Molecular Sciences, 2023).
Entries after “also recorded” stand apart in the source; their conditions may differ. Read-outs that look alike come from different tables or passages of the source.

Assays:
ERK2 = conditions: cited from earlier work
HCT116 mouse xenografts = system: HCT116 mouse xenografts; set-up: method as in PMID 27227380; conditions: cited from earlier work
ERK1 = conditions: cited from earlier work
[1] = system: BRAF mutant and RAS mutant cell lines; set-up: method as in PMID 29247021, PMID 28939558; conditions: preclinical studies; cited from earlier work
tumor = system: tumor; set-up: method as in PMID 28376306; conditions: daily dose of 50 mg/kg; cited from earlier work
A375 cells [2] = experiment: Cell proliferation (CCK8) assay, A375; assay type: cell-based; conditions: Homo sapiens, A-375, A375, 72 h, read-out: IC50 (growth inhibition, cytotoxicity)
Description: (§1) A375, HCT116, Calu-6, and B16-F10 cells were purchased from American Type Culture Collection (ATCC) and cultured in DMEM high glucose media (SH30022.01, Cytiva, Shanghai, China) supplemented with 10% fetal bovine serum (10099-144, Gibco, Carlsbad, CA, USA) and 1% penicillin/streptomycin (Solarbio, Beijing, China) in an incubator at 37 °C with 5% CO2.
(§2) A 96-well plate (3599, Corning, New York, NY, USA) was inoculated with 100 μL of complete medium containing 10,000 cells, and the experimental, control, and blank groups were established. Three parallel wells were used per concentration. After 10 h, the media from the experimental and control groups were replaced with a compound containing the indicated concentration of the complete medium. Cells were incubated for 72 h before 10 μL of CCK8 reagent (CA1210, Solarbio, Beijing, China) was added to each well and incubated for 1 h. Using a microplate reader (Tecan, Mannendorf, Switzerland), the absorbance at 450 nm was measured. The IC50 values were determined using GraphPad Prism 8 and nonlinear regression curve fitting.

A375 cells [3] = experiment: Transwell migration assay; assay type: cell-based, human; conditions: 24 h
Description: A total of 100 µL of FBS-free DMEM high-glucose medium containing 20,000 cells was added to the upper layer of the Transwell chamber of a 24-well plate (3422, Corning, New York, NY, USA), and a complete medium containing 10% FBS was added to the lower layer. The experimental group and the control group were established. The control group used DMSO (DMSO concentration in the culture medium was no more than 0.5% in each well), and the specified concentration of compounds was added to the medium of the experimental group. The cells were then placed in an incubator for 24 h. The cells were washed with PBS, the cells in the upper layer of the Transwell chamber were wiped off with a cotton swab, and the cells were fixed with cold methanol for 15 min. The cells were stained with crystal violet reagent and observed and photographed under a microscope. Then, crystal violet was washed with 33% acetic acid and the absorbance was measured at a wavelength of 590 nm. Graphing with GraphPad Prism 8 after counting cells was performed.

ERK1/2 [4] = experiment: Western blot ERK1/2 protein degradation assay in A375 cells; assay type: cell-based, human
Description: as §1
Cells were cultured under the indicated conditions as described in “Cell culture”. Cells were seeded in 6-well plates (3516, Corning, New York, NY, USA). Compounds were dissolved in DMSO for storage (10 mM). Following compound treatment, cells were washed with PBS, scraped from the plate, and lysed using cell lysis buffer (Applygen, Beijing, China). After the protein in the cell lysate was quantified via the BCA quantification method, the samples were placed in a metal bath at 100 °C and heated for 5 min. Cell lysates were separated using a 10% SDS–PAGE gel and transferred to PVDF membranes (Merck Millipore, Burlington, MA, USA). The PVDF membrane was blocked with 5% nonfat dry milk in TBST for one hour. The PVDF membrane was transferred to the antibody diluent and incubated overnight at 4 °C. PVDF membranes were washed three times with TBST for 5 min each and then incubated with the appropriate HRP-conjugated secondary antibody for 1 h at room temperature. After washing three more times with TBST, the PVDF membrane was stained with a hypersensitive ECL chemiluminescence reagent (Biodragon, Beijing, China) and then imaged with Tanon 5200. Grayscale quantitative analysis was performed using ImageJ software. Statistical analysis was performed using GraphPad Prism 8. DC50 and Dmax values were fitted using a four-parameter [inhibitor] versus response and reported directly from the Prism output. Mean ± SD and unpaired t tests were performed in GraphPad Prism.

HCT116 tumor = experiment: HCT116 subcutaneous xenograft model in nude mice; assay type: in vivo
Description: Male BALB/c nude mice of around 8 weeks old were purchased from Charles River (Beijing, China). Nude mice were raised in SPF-grade animal rooms and had access to water and food ad libitum. HCT116 colorectal cancer cells were grown in DMEM supplemented with 10% fetal calf serum and 1% penicillin/streptomycin under standard cell culture conditions. HCT116 xenografts were prepared by subcutaneously injecting 5× 10^6 cells suspended in PBS into the right flank of each male BALB/c nude mouse. Tumor growth was monitored via caliper measurement, and volume was calculated using the following equation: 0.5 × max (length/width) × min (length/width) × min (length/width). When the tumors reached an average of approximately 100 mm^3, the mice were randomized into groups of five. The mice were injected intraperitoneally once a day at doses of 6, 12, 25 mg/kg compound B1-10J and 25 mg/kg 5-FU. Body weights and tumor volumes were measured every 2–3 days. All studies were appropriately statistically powered.

ERK1/2 [5] = experiment: Western blot ERK1/2 protein degradation assay in Calu-6 cells; assay type: cell-based, human; conditions: 48 h, Western blot and grayscale quantification
Description: (§3) A375, HCT116, Calu-6, and B16-F10 cells were purchased from American Type Culture Collection (ATCC) and cultured in DMEM high glucose media (SH30022.01, Cytiva, Shanghai, China) supplemented with 10% fetal bovine serum (10099-144, Gibco, Carlsbad, CA, USA) and 1% penicillin/streptomycin (Solarbio, Beijing, China) in an incubator at 37 °C with 5% CO2. Cells were cultured under the indicated conditions as described in “Cell culture”. Cells were seeded in 6-well plates (3516, Corning, New York, NY, USA). Compounds were dissolved in DMSO for storage (10 mM). Following compound treatment, cells were washed with PBS, scraped from the plate, and lysed using cell lysis buffer (Applygen, Beijing, China). After the protein in the cell lysate was quantified via the BCA quantification method, the samples were placed in a metal bath at 100 °C and heated for 5 min. Cell lysates were separated using a 10% SDS–PAGE gel and transferred to PVDF membranes (Merck Millipore, Burlington, MA, USA). The PVDF membrane was blocked with 5% nonfat dry milk in TBST for one hour. The PVDF membrane was transferred to the antibody diluent and incubated overnight at 4 °C. PVDF membranes were washed three times with TBST for 5 min each and then incubated with the appropriate HRP-conjugated secondary antibody for 1 h at room temperature. […] Grayscale quantitative analysis was performed using ImageJ software. […]

Calu-6 cells = experiment: Cell proliferation (CCK8) assay, Calu-6; assay type: cell-based; conditions: Homo sapiens, Calu-6, 72 h, read-out: IC50 (growth inhibition, cytotoxicity)
Description: as §1, §2

HCT116 cells = experiment: Cell proliferation (CCK8) assay, HCT116; assay type: cell-based, human; conditions: HCT116, 72 h, read-out: IC50 (growth inhibition, cytotoxicity)
Description: as §1, §2

ERK1/2 [6] = experiment: Western blot ERK1/2 protein degradation assay in B16-F10 cells; assay type: cell-based; conditions: B16-F10 murine melanoma cells, 48 h
Description: as §3

ERK1/2 [7] = experiment: Western blot ERK1/2 protein degradation assay in HCT116 cells; assay type: cell-based, human
Description: A375, HCT116, Calu-6, and B16-F10 cells were purchased from American Type Culture Collection (ATCC) and cultured in DMEM high glucose media (SH30022.01, Cytiva, Shanghai, China) supplemented with 10% fetal bovine serum (10099-144, Gibco, Carlsbad, CA, USA) and 1% penicillin/streptomycin (Solarbio, Beijing, China) in an incubator at 37 °C with 5% CO2. Cells were cultured under the indicated conditions as described in “Cell culture”. Cells were seeded in 6-well plates (3516, Corning, New York, NY, USA). Compounds were dissolved in DMSO for storage (10 mM). Following compound treatment, cells were washed with PBS, scraped from the plate, and lysed using cell lysis buffer (Applygen, Beijing, China). After the protein in the cell lysate was quantified via the BCA quantification method, the samples were placed in a metal bath at 100 °C and heated for 5 min. Cell lysates were separated using a 10% SDS–PAGE gel and transferred to PVDF membranes (Merck Millipore, Burlington, MA, USA). The PVDF membrane was blocked with 5% nonfat dry milk in TBST for one hour. The PVDF membrane was transferred to the antibody diluent and incubated overnight at 4 °C. PVDF membranes were washed three times with TBST for 5 min each and then incubated with the appropriate HRP-conjugated secondary antibody for 1 h at room temperature. After washing three more times with TBST, the PVDF membrane was stained with a hypersensitive ECL chemiluminescence reagent (Biodragon, Beijing, China) and then imaged with Tanon 5200. Grayscale quantitative analysis was performed using ImageJ software. Statistical analysis was performed using GraphPad Prism 8. DC50 and Dmax values were fitted using a four-parameter [inhibitor] versus response and reported directly from the Prism output. Mean ± SD and unpaired t tests were performed in GraphPad Prism.

In the case of `Cn1nccc1Nc1nccc(-c2ccn([C@H](CO)c3ccc(Cl)c(F)c3)c(=O)c2)n1` [GDC-0994, (S)-1-(1-(4-Chloro-3-fluorophenyl)-2-hydroxyethyl)-4-(2-((1-methyl-1H-pyrazol-5-yl)amino)pyrimidin-4-yl)pyridin-2(1H)-one], the IC50 (ERK2) is listed as […], the antitumor activity (HCT116 mouse xenografts) is listed as “potent antitumor activity” and the IC50 (ERK1) is listed as […].

For `CC(C)Nc1cc(-c2c[nH]c(C(=O)N[C@H](CO)c3cccc(Cl)c3)c2)c(Cl)cn1` [BVD-523], the Ki (ERK2) is given as 0.04 nM, the anticancer activity [1] is given as “demonstrated anticancer activity” and the Ki (ERK1) is given as < 0.3 nM.

For `Cc1cccc(CN2C(=O)c3cc(-c4nc(Nc5ccnn5C)ncc4C)cn3C[C@H]2C)n1` [compound 35], the antitumor effect (tumor) is given as “significant tumor regression” and the IC50 (ERK2) is given as < 0.3 nM.

With `Cc1cccc(CN2C(=O)c3cc(-c4nc(Nc5ccnc(C#CCCN(C)CCCCCCCCCCNc6cccc7c6C(=O)N(C6CCC(=O)NC6=O)C7=O)c5)ncc4C)cn3C[C@H]2C)n1` (stereo partly shown) [Compound B1-10J] the IC50 (A375 cells [2]) was > 30000 nM, the “decrease of migration rate” value (A375 cells [3]; 1 μM, crystal violet absorbance 590 nm) was “more than 50%” and the “cell migration (in words)” value (A375 cells [3]; Transwell chamber) was “dose-dependently inhibited; also recorded: decreased markedly; also recorded: significantly prevented the migration”. The “time after which ERK1/2 protein level returned to normal” value (ERK1/2 [4]; 1 μM) was > 48 h, the “time at which ERK1/2 degradation nearly reached its highest level” value (ERK1/2 [4]; 1 μM) was 24 h and the “time at which ERK1/2 protein began to degrade” value (ERK1/2 [4]; 1 μM) was 6 h. The “ERK1/2 degradation with/without MG132 and MLN4924” value (ERK1/2 [4]; 24 h, B1-10J 1 μM, MG132 1 μM, MLN4924 1 μM) was “only degraded by B1-10J alone”, the “concentration dependence of ERK1/2 degradation (hook effect)” value (ERK1/2 [4]; 24 h, large range of concentrations) was “typical “hook” effect” and the “ERK1/2 degradative activity (in words)” value (ERK1/2 [4]; 48 h, Western blot) was “slightly increased DC50; also recorded: effective ERK1/2 degraders”. For the same molecule, the DC50 (ERK1/2 [4]; 48 h, Western blotting and grayscale quantification) was 498 ± 369 nM, the tumor growth inhibition (HCT116 tumor; 25 mg/kg daily, intraperitoneal, up until day 19) was “approximately 50%” and the “tumor growth inhibition, dose dependence” value (HCT116 tumor; 6, 12, 25 mg/kg Q.D., intraperitoneal) was “dose-dependent manner”. The “antitumor effect (in words)” value (HCT116 tumor; daily dose of 25 mg/kg, intraperitoneal, 25 mg/kg) was “more effective at a 25 mg/kg dose than 5-FU”, the “body weight / tolerability” value (HCT116 tumor; nude mice with HCT116 xenograft, during treatment) was “well-tolerated” and the DC50 (ERK1/2 [5]) was 85 nM. For the same molecule, the IC50 (Calu-6 cells) was 15900 nM, the IC50 (HCT116 cells) was 2100 nM and the IC50 (HCT116 cells; Homo sapiens, HCT-116, 72 h) was 2200 nM. The “ERK1/2 degradative activity (in words)” value (ERK1/2 [6]) was “weak degradative activity”, the “duration of ERK1/2 degradation” value (ERK1/2 [7]; 1 μM) was “up to 72 h” and the “time at which ERK1/2 degradation nearly reached its highest level” value (ERK1/2 [7]; 1 μM) was 24 h. The “time at which ERK1/2 protein began to degrade” value (ERK1/2 [7]; 1 μM) was 6 h and the DC50 (ERK1/2 [7]; 48 h, Western blot and grayscale quantification) was 102 nM.
